Laboratory results reported in article PMC4104029, “Mechanism of Action of Compound-13: An α1-Selective Small Molecule Activator of AMPK” (Chemistry & Biology, 2014).

How the values were obtained:
[1] = target: T1, AMPKα1β1γ2 with β1 Δ1–185 (ΔCBD) (Homo sapiens, UniProt Q13131+Q9UGJ0); test: AMPKα1β1γ2 mutagenesis, activation assay; type: biochemical; conditions: 1 μM C2; complex purified from COS1 cells
T1 construct: made in house; host or cells: COS1 cells (transient transfection, FLAG-M2 purification)
Experimental: (§1) Figure 2 C2 Is a Partial Agonist of α2 Complexes and Selectively Protects α1 Complexes against Dephosphorylation by PP2C (A and B) Recombinant AMPKα1β1γ1 (A) or AMPKα2β1γ1 (B) was assayed in the presence of AMP (30 μM) and increasing concentrations of C2 (0–20 μM). Results are expressed as fold increase in activity relative to controls without ligand and represent the mean ± SD for three independent experiments. (C and D) The effects of C2 and AMP on dephosphorylation and inactivation of AMPKα1β1γ1 (C) and α2β1γ1 (D) by PP2Cα (present in all assay conditions). Results are expressed as a percentage of control reactions performed in the absence of Mg^2+ and represent the mean ± SD of three independent experiments. Representative blots of pT172 and total AMPKα are shown below the bar charts. […] Results are expressed as the fold increase in activity relative to controls in the absence of compound and represent the mean ± SD for three independent experiments. […]
(§2) Competitive elution of AMPKγ2 from ATP-Sepharose. […] Resin was pelleted at low speed and the resulting supernatant analysed for the presence of AMPKγ2 by SDS-PAGE and staining with colloidal Coomassie (Generon). […]

AMPKα1β1γ2 with γ2 R531G = target: T2, AMPKα1β1γ2 with γ2 R531G (Homo sapiens, UniProt Q13131+Q9UGJ0, R531G); test: AMPKα1β1γ2 mutagenesis, activation assay; type: biochemical; conditions: 1 μM C2; complex purified from COS1 cells
T2 construct: made in house; host or cells: COS1 cells (transient transfection, FLAG-M2 purification)
Experimental: as §1, §2

T2 sequence (Q13131 whole entry): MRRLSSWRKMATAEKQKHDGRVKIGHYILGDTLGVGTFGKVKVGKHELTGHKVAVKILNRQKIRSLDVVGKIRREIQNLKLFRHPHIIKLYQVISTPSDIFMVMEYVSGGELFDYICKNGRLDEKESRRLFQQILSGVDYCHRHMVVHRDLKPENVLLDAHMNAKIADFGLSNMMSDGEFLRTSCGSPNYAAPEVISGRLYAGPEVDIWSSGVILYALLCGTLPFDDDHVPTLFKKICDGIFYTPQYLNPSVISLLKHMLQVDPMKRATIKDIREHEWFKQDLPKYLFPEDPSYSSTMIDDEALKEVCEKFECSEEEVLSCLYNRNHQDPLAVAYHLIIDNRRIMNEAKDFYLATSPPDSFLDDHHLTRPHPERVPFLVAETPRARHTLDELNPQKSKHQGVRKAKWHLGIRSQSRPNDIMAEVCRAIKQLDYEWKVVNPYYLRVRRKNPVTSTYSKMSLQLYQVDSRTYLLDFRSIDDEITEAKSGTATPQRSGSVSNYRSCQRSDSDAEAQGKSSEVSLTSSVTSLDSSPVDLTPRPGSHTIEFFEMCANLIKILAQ
T2 sequence (Q9Y478 whole entry partner): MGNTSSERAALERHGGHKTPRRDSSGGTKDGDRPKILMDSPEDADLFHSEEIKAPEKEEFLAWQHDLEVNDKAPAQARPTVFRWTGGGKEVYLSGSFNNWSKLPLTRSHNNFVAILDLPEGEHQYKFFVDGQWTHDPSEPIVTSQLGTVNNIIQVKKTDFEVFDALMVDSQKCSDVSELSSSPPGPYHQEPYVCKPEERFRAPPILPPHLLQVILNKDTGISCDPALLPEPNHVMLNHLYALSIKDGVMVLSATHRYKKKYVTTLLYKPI
T2 sequence (Q9UGJ0 whole entry R531G): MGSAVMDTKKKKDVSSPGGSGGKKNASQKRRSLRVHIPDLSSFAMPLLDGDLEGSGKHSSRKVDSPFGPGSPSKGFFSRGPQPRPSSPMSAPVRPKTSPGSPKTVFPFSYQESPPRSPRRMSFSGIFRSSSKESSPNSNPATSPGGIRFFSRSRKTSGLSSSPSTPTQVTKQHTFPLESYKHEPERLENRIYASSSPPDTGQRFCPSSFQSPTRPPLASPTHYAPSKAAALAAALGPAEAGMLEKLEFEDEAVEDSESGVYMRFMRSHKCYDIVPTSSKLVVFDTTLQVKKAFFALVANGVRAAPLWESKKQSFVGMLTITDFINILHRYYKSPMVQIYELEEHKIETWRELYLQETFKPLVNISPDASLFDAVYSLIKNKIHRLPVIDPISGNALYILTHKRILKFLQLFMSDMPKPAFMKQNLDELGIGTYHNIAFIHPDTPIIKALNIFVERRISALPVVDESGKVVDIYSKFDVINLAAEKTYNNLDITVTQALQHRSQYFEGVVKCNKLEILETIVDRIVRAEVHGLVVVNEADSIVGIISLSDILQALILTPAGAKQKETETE
T1 sequence (Q13131 whole entry, stated change not applied): as the sequence (Q13131 whole entry) above
T1 sequence (Q9Y478 186-270 partner): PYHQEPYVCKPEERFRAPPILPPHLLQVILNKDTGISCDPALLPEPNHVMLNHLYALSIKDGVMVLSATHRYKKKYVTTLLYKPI
T1 sequence (Q9UGJ0 whole entry, stated change not applied): as the sequence (Q9UGJ0 whole entry R531G) above, with G531R counted along it

SMILES: O=P(O)(O)c1ccc(-c2cc(O)on2)o1 [Compound C2, 5-(5-hydroxyl-isoxazol-3-yl)-furan-2-phosphonic acid]
- activation of mutant complex [1]: unaffected
- stimulation of mutant complex (AMPKα1β1γ2 with γ2 R531G): failed to stimulate
